Data: patent publication US11020398B2, “Amino-pyrrolopyrimidinone compounds and methods of use thereof” (ArQule, Inc., priority 2016, dated 2021)

Molecular target: phosphorylated form of full length BTK (active BTK) (Homo sapiens (Human), UniProt Q06187)
Experiment: Mobility shift assay (MSA, Caliper LabChip), active BTK assay
Type: biochemical
Conditions: Assay type B (MSA using active BTK)
Procedure: The active BTK assay consists of phosphorylated form of full length BTK. […] The enzyme inhibitor complexes is incubated, before the kinase activation reaction is initiated.
Mobility Shift Assay (MSA)
The active BTK assay consisted of phosphorylated form of full length BTK. […] The enzyme inhibitor complexes was incubated for 30 minutes at the room temperature and the kinase activation reaction was initiated by the addition of 1 μM Srctide peptide substrate and […].

Chain of phosphorylated form of full length BTK (active BTK) (Q06187 whole entry): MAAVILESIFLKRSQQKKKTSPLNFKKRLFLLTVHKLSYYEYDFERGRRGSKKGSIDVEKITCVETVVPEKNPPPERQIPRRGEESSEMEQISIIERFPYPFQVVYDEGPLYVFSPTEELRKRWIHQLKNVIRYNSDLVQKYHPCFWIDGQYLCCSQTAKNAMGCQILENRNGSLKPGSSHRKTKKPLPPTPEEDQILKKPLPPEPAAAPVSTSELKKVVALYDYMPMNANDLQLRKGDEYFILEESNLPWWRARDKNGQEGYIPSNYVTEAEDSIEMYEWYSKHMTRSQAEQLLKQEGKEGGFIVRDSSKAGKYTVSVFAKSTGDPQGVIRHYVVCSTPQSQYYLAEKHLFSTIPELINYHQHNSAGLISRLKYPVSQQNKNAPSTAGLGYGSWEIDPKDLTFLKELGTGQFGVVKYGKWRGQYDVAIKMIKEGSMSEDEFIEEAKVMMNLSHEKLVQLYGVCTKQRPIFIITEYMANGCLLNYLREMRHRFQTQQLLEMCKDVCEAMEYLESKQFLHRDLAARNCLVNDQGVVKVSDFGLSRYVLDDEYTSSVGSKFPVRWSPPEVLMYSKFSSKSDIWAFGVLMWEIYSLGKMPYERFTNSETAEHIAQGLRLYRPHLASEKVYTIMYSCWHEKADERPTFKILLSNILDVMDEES

Row | IC50 [nM] | SMILES
1 | 5.9 | CC(=O)N[C@@H](C)[C@@H]1CC[C@@H](Nc2ncnc3[nH]cc(C(=O)c4ccccc4Cl)c23)CO1 [Compound I-116, N—((S)-1-((2S,5R)-5-((5-(2-chlorobenzoyl)-7H-pyrrolo[2,3-d]pyrimidin-4-yl)amino)tetrahydro-2H-pyran-2-yl)ethyl)acetamide]
2 | 2.2 | C[C@@H](O)[C@@H]1CC[C@@H](Nc2ncnc3[nH]cc(C(=O)c4ccc(Oc5cccc(Cl)c5)cc4Cl)c23)CO1 [Compound I-183, (2-chloro-4-(3-chlorophenoxy)phenyl)(4-(((3R,6S)-6-((R)-1-hydroxyethyl)tetrahydro-2H-pyran-3-yl)amino)-7H-pyrrolo[2,3-d]pyrimidin-5-yl)methanone]
3 | 5.9 | CC(=O)N[C@@H](C)[C@@H]1CC[C@@H](Nc2ncnc3[nH]cc(C(=O)c4ccccc4C)c23)CO1 [Compound I-117, N—((S)-1-((2S,5R)-5-((5-(2-methylbenzoyl)-7H-pyrrolo[2,3-d]pyrimidin-4-yl)amino)tetrahydro-2H-pyran-2-yl)ethyl)acetamide]
4 | 3.1 | C[C@H](O)C(=O)N[C@@H](C)[C@@H]1CC[C@@H](Nc2ncnc3[nH]cc(C(=O)c4ccc(Oc5ccccc5)cc4Cl)c23)CO1 [Compound I-208, (S)—N—((S)-1-((2S,5R)-5-((5-(2-chloro-4-phenoxybenzoyl)-7H-pyrrolo[2,3-d]pyrimidin-4-yl)amino)tetrahydro-2H-pyran-2-yl)ethyl)-2-hydroxypropanamide]
5 | 1.1 | CC(=O)N[C@@H](C)[C@@H]1CC[C@@H](Nc2ncnc3[nH]cc(C(=O)c4ccc(Oc5ccccc5)cc4C)c23)CO1 [Compound I-204, N-((S)-1-((2S,5R)-5-((5-(2-methyl-4-phenoxybenzoyl)-7H-pyrrolo[2,3-d]pyrimidin-4-yl)amino)tetrahydro-2H-pyran-2-yl)ethyl)acetamide]
6 | 0.98 | CN(C)CC(=O)N[C@H]1CC[C@@H](Nc2ncnc3[nH]cc(C(=O)c4ccc(Oc5ccccc5)cc4Cl)c23)CC1 [Compound I-181, N-(cis-4-((5-(2-chloro-4-phenoxybenzoyl)-7H-pyrrolo[2,3-d]pyrimidin-4-yl)amino)cyclohexyl)-2-(dimethylamino)acetamide]
7 | 23 | CC1(N)CN([C@H]2CC[C@H](Nc3ncnc4[nH]cc(C(=O)c5ccccc5Cl)c34)CC2)C1 [Compound I-114, (4-((trans-4-(3-amino-3-methylazetidin-1-yl)cyclohexyl)amino)-7H-pyrrolo[2,3-d]pyrimidin-5-yl)(2-chlorophenyl)methanone]
8 | 1.2 | C[C@H](O)C(=O)N[C@H]1CC[C@@H](Nc2ncnc3[nH]cc(C(=O)c4ccc(Oc5ccccc5)cc4Cl)c23)CC1 [Compound I-193, (S)—N-(cis-4-((5-(2-chloro-4-phenoxybenzoyl)-7H-pyrrolo[2,3-d]pyrimidin-4-yl)amino)cyclohexyl)-2-hydroxypropanamide]
9 | 57 | CC(C)(C)OC(=O)N[C@H]1C[C@H](Nc2ncnc3[nH]cc(C(=O)c4ccc(Oc5ccccc5)cc4)c23)C1 [Compound I-185, tert-butyl (trans-3-((5-(4-phenoxybenzoyl)-7H-pyrrolo[2,3-d]pyrimidin-4-yl)amino)cyclobutyl)carbamate]
